In US20070202047A1, “Polyamine-substituted ligands for use as contrast agents” (priority 2006, published 2007):

Legend:
[1] = system: MCF-7 (human breast cancer); assay: Intracellular uptake of gadolinium complexes (ICP-MS); type: cell-based; details: MCF-7, 1 h incubation, 100 μM
Procedure: (§1) Cell Uptake Studies. A493 (human kidney), B16 melanoma cells (mouse), HeLa (human cervix), MCF-7 (human breats), MH3924A (Morris hepatoma) cells (rat) and 3T3 NIH (mouse fibroblasts) were obtained from the DKFZ tumor cell collection. 3×10^6 cells of each cell type were grown for 24 hours in culture flasks. Afterwards they were incubated for 1 hour in 10 mL culture media containing 0, 10, 50 and 100 μM of Gd-2.2. Gd-3.2 or Gd-4.2. Afterwards the medium was removed, the cells were trypsinated, washed twice, resuspended in culture medium and counted. The gadolinium uptake was determined in triplicate. […] cells were incubated with 0, 1, 2.5, 5 and 10 μM of the Gd-1.2. and Gd-5.2. for 24 h.
(§2) ICP-MS: Equal cell counts were taken and digested with HNO3 under microwave heating (Mars5, CEM). The samples were diluted with water containing Rh-103 as an internal standard. Gd-157 measurements were performed with a high resolution ICP-mass spectrometer (ELEMENT 2, Finnigan MAT). The gadolinium concentrations were determined from standard curves created prior to sample analyses.

[2] = system: HeLa (human cervix carcinoma cells); assay: as above; type: cell-based; details: 1 h incubation, 100 μM
Procedure: as §1, §2

[3] = system: A498 (human kidney carcinoma); assay: as above; type: cell-based; details: A498, 1 h incubation, 100 μM
Procedure: as §1, §2

B16 melanoma cells = assay: as above; type: cell-based, mouse; details: B16 melanoma cells, 1 h incubation, 100 μM
Procedure: (§3) Cell culture. B16 melanoma cells (mouse) and MH3924A Morris hepatoma cells (rat) were obtained from the German Cancer Research Center (DKFZ) tumor bank and grown at 37° C. as stock cultures in RPMI 1640 supplemented with 10% fetal calf serum and 1% glutamine as standard medium under a 5% CO2 atmosphere (all components: Pan Biotech GmbH, Aidenbach, Germany). For contrast agent uptake studies 10^6 cells were inoculated into 25 cm^2 culture flasks (BD Biosciences, Bedford, USA) and grown for 24 h in 10 mL of the standard culture medium. Cells were then incubated for an additional 24 h (1 h for temperature dependence studies) with fresh medium containing 0, 1, 2.5, 5 or 10 μM of the selected gadolinium complex (three replicate flasks for each incubation). Afterwards the medium was removed, cells were trypsinated, washed twice, resuspended in culture medium and counted (typical yields: 3.5-6 million cells). For comparison 2.5×10^5 human melanocytes (Promo Cell, Heidelberg, Germany) were incubated for 24 h with melanocyte growth medium (Promo Cell, Heidelberg, Germany) containing 0, 1, 2.5, 5 or 10 μM of the selected gadolinium complex (two replicate flasks for each incubation). The work up procedure was as described above typically yielding 2.5×10^5 cells. Cultured human hepatocytes (Cytonet GmbH, Weinheim, Germany) embedded in a collagen matrix in a 12 well microtiter plate, with 6×10^5 viable cells per well were incubated for 24 h in hepatocyte growth medium (Cytonet GmbH, Weinheim, Germany) containing the same concentration series of selected gadolinium complexes. Afterwards the medium was removed, cells were separated using collagenase (Roche Diagnostics, Mannheim, Germany). After digestion the cells were washed twice with PBS, resuspended in culture medium and counted (typical yields: 6×10^5 cells per tube). The intracellular gadolinium content was determined by ICP-MS as described below.
(§4) ICP-MS. Samples containing the above mentioned number of harvested cells were digested with 50% concentrated HNO3 (Superselect; Merck, Darmstadt, Germany) under microwave heating with a Mars 5 apparatus (CEM GmbH, Kamp-Lintfort, Germany). To each sample 100 μL of an aqueous solution of rhodium chloride (1 μg/mL) were added so that Rh-103 could be used as an internal quantification standard. Gd-160 measurements were performed with the ICP-MS instrument mentioned above. The gadolinium concentrations were determined using standard curves created prior to cell analyses. For each uptake incubation condition triplicate cell samples were analyzed, and Gd content for each sample was recorded as the mean of two MS determinations.
(§5) Intracellular Uptake of Gadolinium Complexes. B16 melanoma and MH3924A hepatoma cells as well as human melanocytes and hepatocytes were incubated for 24 h in the presence of the gadolinium complexes shown in FIG. 1, using concentrations in the range of 1-10 μM. Incubations with the unsubstituted [Gd(DTPA)(H2O)]^2−complex (Magnevist®) served as controls. Following cell harvest and hydrolysis, inductively coupled plasma mass spectrometry (ICP-MS) with direct detection of gadolinium was used to quantitate complex uptake (triplicate cultures for each incubation).
as §1, with “h. […]” for “h.”

Complex stability = type: physicochemical; details: method of Sherry et al.
Procedure: Complex stability. The stability constants were determined using a method of Sherry et al. (39).

[4] = Biodistribution in BALB/c nu/nu mice carrying B16 melanoma; type: in vivo, mouse; details: 1 h post i.v. injection, perfused organs, B16 melanoma-bearing mice
Procedure: (§6) Animal model. For in vivo tumor studies 3×10^6 B16 tumor cells were injected subcutaneously into the right thigh of male BALB/c nu/nu mice (Charles River, Sulzfeld, Germany) weighing 18 to 21 g. All animal experiments were performed in compliance with the German Animal Protection Laws (Permission 35-9185.81/G-7-03, Reg.-Praesidium, Karlsruhe, Germany).
Biodistribution data. At 10 days after tumor inoculation, when tumors had reached a diameter of ca. 7-8 mm, the biodistribution experiments were initiated. Each animal (18-21 g) was given an intravenous tail-vein injection of 975 μmol/kg Gadovist® (Schering, Berlin, Germany) or 1 μmol/kg of Gd-2.2. 1 h post-injection (p.i.), the animals were weighed, sacrificed by cervical dislocation, perfused and dissected. Organs or tissues were blotted dry and weighed. Samples containing the tumor or organs were digested with concentrated HNO3 (Superselect; Merck, Darmstadt, Germany) and H2O2 under microwave heating with a Mars 5 apparatus (CEM GmbH, Kamp-Lintfort, Germany). To each sample 100 μL of an aqueous solution of rhodium chloride (1 μg/mL) were added so that Rh-103 could be used as an internal quantification standard. […] The gadolinium concentrations were determined using standard curves created prior to tissue analyses. The results are expressed as nmol Gd/g tissue scaled on the dose of 100 μmol of the corresponding Gd complex.

human serum albumin = target: T1, human serum albumin (Homo sapiens, UniProt P02768); assay: Serum albumin binding (ultrafiltration, ICP-MS); type: in vitro ADME; details: 20 μM complex, 40 g/L HSA, 37° C., ultrafiltrate
T1 construct: purchased Behring, Bern, Switzerland
T1 sequence (P02768 25-609): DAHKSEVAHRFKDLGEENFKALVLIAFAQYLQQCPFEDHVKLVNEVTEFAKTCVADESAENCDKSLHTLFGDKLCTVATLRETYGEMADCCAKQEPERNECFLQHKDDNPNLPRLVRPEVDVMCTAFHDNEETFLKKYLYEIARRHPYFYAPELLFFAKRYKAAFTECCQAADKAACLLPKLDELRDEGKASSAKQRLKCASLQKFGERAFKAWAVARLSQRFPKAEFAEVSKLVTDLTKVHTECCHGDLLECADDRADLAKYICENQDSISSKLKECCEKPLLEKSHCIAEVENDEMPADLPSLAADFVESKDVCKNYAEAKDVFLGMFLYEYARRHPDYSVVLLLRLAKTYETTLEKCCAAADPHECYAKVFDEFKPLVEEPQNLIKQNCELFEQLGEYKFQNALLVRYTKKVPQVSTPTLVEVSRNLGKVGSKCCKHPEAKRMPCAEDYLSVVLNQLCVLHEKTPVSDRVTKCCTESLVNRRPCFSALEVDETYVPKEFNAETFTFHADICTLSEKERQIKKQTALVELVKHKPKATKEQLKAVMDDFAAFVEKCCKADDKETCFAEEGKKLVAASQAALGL
Procedure: Serum albumin binding. Solutions containing 20 μM Gd-3.1., Gd-5.1. or Gd-6.1. and 40 g/L human serum albumin (Behring, Bern, Switzerland) were incubated at 37° C. for 30 or 90 min. The solutions were subjected to ultrafiltration (filter cutoff 20 kD; Sartorius, Göttingen, Germany), and the amount of unbound complex was determined in the ultrafiltrate with ICP-MS (n=2).
HSA Binding: 20 μM solutions of the complexes were incubated at 37° C. for 30 and 90 minutes in a solution of 40 g HSA/L (Behring, Bern; Switzerland). The amount of unbound complex was determined in ultrafiltrates with ICP-MS.

[5] = system: MH3924A Morris hepatoma cells; assay: Intracellular uptake of gadolinium complexes (ICP-MS); type: cell-based, rat; details: MH3924A
Procedure: as §3, §4, §5
as §1, with “h. […]” for “h.”

[6] = system: subcutaneous MH3924A tumor; assay: MRI of ACI rats bearing a subcutaneous MH3924A tumor; type: in vivo, rat; details: 1 h post Gd, 0.1 mmol/kg i.v., 2.35 T
Procedure: as §6, with “Animal models.” for “Animal model.”, “studies 2×10^6 MH3924A” for “studies 3×10^6 B16”, “male ACI rats” for “male BALB/c nu/nu mice”, “weighing 220” for “weighing 18”, “to 260” for “to 21”
MRI. At 25 days after inoculation, when tumors had reached a diameter of ca. 10-15 mm, the MR imaging experiments were initiated. ACI rats were anesthetized by intravenous injection of ketamin (Ketanest®, 0.1 mg/g body wt.; Parke-Davis, Berlin, Germany). Then a dose of 0.1 mmol/kg Magnevist® or Gadovist® (Schering, Berlin, Germany) or one of the synthesized agents Gd-3.1., Gd-5.1. or Gd-6.1. was injected intravenously into a lateral tail vein. For one experiment a higher dose (0.36 mmol/kg) of Magnevist® was used. Individual rats were examined by MRI at 1 h and 24 h post Gd, in the case of Magnevist® also at ca. 15 min post Gd. Proton imaging studies were performed at 2.35 T (100.3 MHz) with a Biospec 24/40 instrument (Bruker BioSpin MRI, Ettlingen, Germany). […] Two transaxial multislice imaging protocols were applied with a field of view of 70×70 mm, 128 time-domain data points, 96 phase-encoding steps, and 16 slices of 2 mm thickness. A multi-spin-echo sequence was used for proton-density and T2-weighted images (repetition time TR=2 s, 12 echoes with echo times TE of 8, 16, 24, . . . 96 ms, number of averages=1), and a spoiled gradient-echo sequence was used for T1-weighted imaging (TR=212 ms, TE=5 ms, flip angle=60°, number of averages=3). The data were Fourier transformed to give a 128×128 image matrix with 0.55 mm pixel resolution. Analogous T1-weighted images with coronal slices were acquired with a field of view of 80×80 mm and 3-mm slice thickness.
Imaging viewing, ROI analysis and export of TIFF files was performed with the freeware MRIcro from Chris Rorden (http://people.cas.sc.edu/rorden/mricro.html).

[7] = system: B16, MH3924A, Hela, MCF-7, A498 and mouse fibroblasts (3T3 NIH); assay: Intracellular uptake, cell panel of FIG. 7A (ICP-MS); type: cell-based; details: 1-h incubation, 10-100 μM, samples of 3×10^6 cells (FIG. 7A)
Procedure: as §1, §2

Compound: NCCN(CCN)C(=O)CN1CCN(CC(=O)[O-])CCN(CC(=O)[O-])CCN(CC(=O)[O-])CC1.[Gd+3] [Gd-2.2]
- intracellular uptake of gadolinium complex [1]: 0.0086 fmol/cell
- intracellular uptake of gadolinium complex [2]: 0.0078 fmol/cell
- intracellular uptake of gadolinium complex [3]: 0.023 fmol/cell
- intracellular uptake of gadolinium complex (B16 melanoma cells): 0.057 fmol/cell
- complex stability constant (Complex stability): about 3.45×10^21
- preferential tissue binding (biodistribution) [4]: binds preferentially to kidneys and skin tissue, but shows high tumor uptake as well
- complex found to be free (unbound) (human serum albumin): 92±5%
- intracellular gadolinium content after 1 h incubation plus additional 24 h in complex-free medium [5]: the same as for the 1 h incubation
- intracellular uptake of gadolinium complex ([5]; 1 h incubation with 100 μM complex): 0.222 fmol/cell

Compound: O=C([O-])CN1CCN(CC(=O)[O-])CCN([C@H](CO)[C@H](O)CO)CCN(CC(=O)[O-])CC1.[Gd+3] (racemic) [Gadovist, gadobutrol, reference compound]
- contrast ratio tumor vs. muscle tissue, T1 weighting [6]: ≤ 1.06
- intracellular uptake (below ICP-MS detection limit) [7]: < 0.01 fmol/cell
